Experimental data: patent publication US7407988B2, “Carbamic acid compounds comprising a sulfonamide linkage as HDAC inhibitors” (Topotarget UK Limited, priority 2000, dated 2008)
Like-named read-outs stand apart in the source and are kept apart here.

Assays:
JURKAT human T-cell line = assay: Secondary assay: cell proliferation WST-1, Jurkat; assay type: cell-based; conditions: Homo sapiens, Table 2, 48 h, read-out: Cell Proliferation Inhibition WST-1 (IC50 unless otherwise specified) Jurkat
[1] = system: K11 HPV E7 transformed human keratinocyte line; assay: Secondary assay: cell proliferation WST-1, K11; assay type: cell-based; conditions: Homo sapiens, Keratinocyte, Table 2, 48 h, read-out: Cell Proliferation Inhibition WST-1 (IC50 unless otherwise specified) K11
[2] = system: NHEK-Ad primary human adult keratinocyte line; assay: Secondary assay: cell proliferation WST-1, NHEK-Ad; assay type: cell-based; conditions: Homo sapiens, Keratinocyte, 48 h, read-out: Cell Proliferation Inhibition WST-1 (IC50 unless otherwise specified) NHEK-AD
HDAC (HeLa cell extract) = assay: Primary assay: deacetylase activity, HeLa cell extract as source of HDAC; assay type: biochemical, human
From the text: (§1) Briefly, this assay relies on the release of radioactive acetate from a radioactively labelled histone fragment by the action of HDAC enzyme. Test compounds, which inhibit HDAC, reduce the yield of radioactive acetate. Signal (e.g., scintillation counts) measured in the presence and absence of a test compound provide an indication of that compound's ability to inhibit HDAC activity. Decreased activity indicates increased inhibition by the test compound.
(§2) The histone fragment was an N-terminal sequence from histone H4, and it was labelled with radioactively labelled acetyl groups using tritiated acetylcoenzyme A (coA) in conjunction with an enzyme which is the histone acetyltransferase domain of the transcriptional coactivator p300. […] The acetylated peptide was then separated from free acetyl coA by size exclusion chromatography on Sephadex G-15 (Sigma G-15-120), using distilled H2O as the mobile phase.
(§3) After purification of the radiolabelled histone fragment, it was incubated with a source of HDAC (e.g., an extract of HeLa cells (a rich source of HDAC), recombinantly produced HDAC1 or HDAC2) and any released acetate was extracted into an organic phase and quantitatively determined using scintillation counting. By including a test compound with the source of HDAC, that compound's ability to inhibit the HDAC was determined.
Two cell volumes of extraction buffer were used, and particulate material was centrifuged out (20800 g, 4° C., 10 min). The supernatant extract having deacetylase activity was aliquotted and frozen for storage.
(§4) A source of HDAC (e.g., 2 μL of crude HeLa extract, 5 μL of HDAC1 or HDAC2; in elution buffer, as above) was incubated with 3 μL of radioactively labelled peptide along with appropriate dilutions of candidate compounds (1.5 μL) in a total volume of 150 μL of buffer (20 mM Tris pH 7.4, 10% glycerol). The reaction was carried out at 37° C. for one hour, after which the reaction was stopped by adding 20 μL of 1 M HCl/0.4 M sodium acetate. […] Radioactivity was measured using a Tri-Carb 21 00TR Liquid Scintillation Analyzer (Packard).
(§5) Percent activity (% activity) for each test compound was calculated as: % activity={(S^C−B)/(S°−B)}×100 wherein S^C denotes signal measured in the presence of enzyme and the compound being tested, S° denotes signal measured in the presence of enzyme but in the absence of the compound being tested, and B denotes the background signal measured in the absence of both enzyme and compound being tested.

HeLa cells = assay: Secondary assay: cell proliferation WST-1, HeLa; assay type: cell-based; conditions: Homo sapiens, read-out: Cell Proliferation Inhibition WST-1 (IC50 unless otherwise specified) HeLa
human HDAC1 = target: T1, human HDAC1 (Homo sapiens, UniProt Q13547); assay: Primary assay: deacetylase activity, recombinantly produced HDAC1; assay type: biochemical; conditions: Table 1; recombinant HDAC1; read-out: HDAC Inhibition (IC50 unless otherwise specified) HDAC1
T1 construct: Full length human HDAC1 was cloned by PCR; Flag (C); implied by Ni-NTA purification) (N); made in house; host or cells: SF9 insect cells (baculovirus)
From the text: as §1, §2, §3
Full length human HDAC1 was cloned by PCR using a λgt11 Jurkat cDNA library (Clontech-HL5012b). […] A second PCR was carried out in order to amplify a fragment containing the HDAC1 sequence fused to the Flag tag.
Amplification of recombinant viruses was performed according to the Pharmingen Instruction Manual.
For protein production, 2×10^7 cells were infected with the appropriate recombinant virus for 3 days. Cells were then harvested and spun at 3,000 rpm for 5 minutes. They were then washed twice in PBS and resuspended in 2 pellet volumes of lysis buffer (25 mM HEPES pH 7.9, 0.1 mM EDTA, 400 mM KCl, 10% glycerol, 0.1% NP-40, 1 mM AEBSF). […]
as §4, with “glycerol).” for “glycerol). The reaction was carried out at 37° C. for one hour, after which the reaction was stopped by adding 20 μL of 1 M HCl/0.4 M sodium acetate.”
as §5

human HDAC2 = target: T2, human HDAC2 (Homo sapiens, UniProt Q92769); assay: Primary assay: deacetylase activity, recombinantly produced HDAC2; assay type: biochemical; conditions: Table 1; recombinant HDAC2; read-out: HDAC Inhibition (IC50 unless otherwise specified) HDAC2
T2 construct: Full length human HDAC2 was subcloned; Flag (carried over from the HDAC2-pFlag-CTC construct; inferred by analogy to HDAC1) (C); implied by Ni-NTA purification) (N); made in house; host or cells: SF9 insect cells (baculovirus)

[3] = Table 1, read-out: HDAC Inhibition (IC50 unless otherwise specified) HeLa
[4] = comparative tables, HDAC inhibition, read-out: HeLa IC50

T1 sequence (Q13547 whole entry): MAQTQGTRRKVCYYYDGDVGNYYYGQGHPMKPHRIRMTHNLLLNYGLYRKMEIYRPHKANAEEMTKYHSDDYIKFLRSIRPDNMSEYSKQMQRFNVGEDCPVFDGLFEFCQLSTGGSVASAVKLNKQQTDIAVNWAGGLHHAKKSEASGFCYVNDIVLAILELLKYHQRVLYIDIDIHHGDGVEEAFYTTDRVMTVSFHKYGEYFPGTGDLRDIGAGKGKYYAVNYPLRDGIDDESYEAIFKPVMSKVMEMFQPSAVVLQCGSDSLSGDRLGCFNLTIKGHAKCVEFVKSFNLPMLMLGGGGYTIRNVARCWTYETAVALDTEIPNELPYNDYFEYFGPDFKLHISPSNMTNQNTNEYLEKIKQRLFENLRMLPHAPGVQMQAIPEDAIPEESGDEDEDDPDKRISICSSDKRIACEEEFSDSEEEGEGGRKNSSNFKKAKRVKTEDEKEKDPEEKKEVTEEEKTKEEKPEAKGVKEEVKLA
T2 sequence (Q92769 whole entry): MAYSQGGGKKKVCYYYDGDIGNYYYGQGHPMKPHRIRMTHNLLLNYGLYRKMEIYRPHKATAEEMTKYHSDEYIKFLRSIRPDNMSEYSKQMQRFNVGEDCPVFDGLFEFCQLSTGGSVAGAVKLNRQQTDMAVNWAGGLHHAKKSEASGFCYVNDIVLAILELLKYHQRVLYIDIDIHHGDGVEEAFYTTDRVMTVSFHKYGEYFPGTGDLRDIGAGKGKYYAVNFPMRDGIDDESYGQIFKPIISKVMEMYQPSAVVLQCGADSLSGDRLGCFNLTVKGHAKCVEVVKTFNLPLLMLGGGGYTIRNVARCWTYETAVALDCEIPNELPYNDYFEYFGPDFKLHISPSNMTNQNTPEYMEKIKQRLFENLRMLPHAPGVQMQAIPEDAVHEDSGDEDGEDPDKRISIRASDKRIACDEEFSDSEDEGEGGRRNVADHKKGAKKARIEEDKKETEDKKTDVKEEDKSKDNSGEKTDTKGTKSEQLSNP

Row | IC50 (HeLa cells; Table 2, 48 h) [nM] | SMILES | IC50 (JURKAT human T-cell line) [nM] | IC50 [1] [nM] | IC50 [2] [nM] | IC50 (HDAC (HeLa cell extract); [3]) [nM] | IC50 (HDAC (HeLa cell extract); [4]) [nM] | IC50 (HeLa cells; 48 h) [nM] | melting point [°C] | IC50 (human HDAC1) [nM] | IC50 (human HDAC2) [nM] | IC50 ([2]; Table 2, NHEK-AD) [nM]
1 |  | O=C(/C=C/C#Cc1cccc(NS(=O)(=O)c2ccccc2)c1)NO [Oxamflatin, (2E)-5-[3-[(phenylsulfonyl)amino]phenyl]-pent-2-en-4-ynohydroxamic acid, reference compound] | 260 | 4560 | 3530 | 38 | 38 | 1100 |  |  |  | 
2 | 4100 | Cc1ccc(S(=O)(=O)Nc2cccc(/C=C/C(=O)NO)c2)cc1 [PX089342, N-Hydroxy-3-[3(toluene-4-sulfonylamino)-phenyl]-acrylamide] |  |  |  | 125 | 125 |  | 147 | 50 |  | 
3 | 8900 | O=C(/C=C/c1cccc(NS(=O)(=O)c2ccccc2)c1)NO [PX089344, 3-(3-Benzenesulfonylamino-phenyl)N-hydroxy-acrylamide] |  |  |  | 89 | 89 |  | 172 |  | 172 | 
4 |  | CN(c1ccccc1)S(=O)(=O)c1cccc(/C=C/C(=O)NO)c1 [PX105685] |  |  |  |  |  | 7300 |  |  | 600 | 
5 | 400 | COc1ccc(NS(=O)(=O)c2cccc(/C=C/C(=O)NO)c2)cc1 [PX105844] |  |  |  | 15 |  |  | 186 | 29 |  | 
6 |  | O=C(/C=C/c1cccc(S(=O)(=O)Nc2cccc3ccccc23)c1)NO [PX117228, N-Hydroxy-3-[3-(naphthalen-1-ylsulfamoyl)-phenyl]-acrylamide] | 150 | 1400 | 1200 | 7 | 7 | 800 | 180 |  |  | 
7 | 350 | CC(/C=C/C(=O)NO)=C\[C@@H](C)C(=O)c1ccc(N(C)C)cc1 [TSA, trichostatin A, reference compound] | 42 | 380 |  |  |  |  |  |  |  | 200

Row | SMILES | IC50 (HeLa cells; Table 2, 48 h) [nM] | IC50 (JURKAT human T-cell line) [nM] | IC50 [1] [nM] | IC50 [2] [nM] | IC50 (HDAC (HeLa cell extract); [3]) [nM] | IC50 (HDAC (HeLa cell extract); [4]) [nM] | IC50 (HeLa cells; 48 h) [nM] | melting point [°C] | IC50 (human HDAC1) [nM] | IC50 (human HDAC2) [nM] | IC50 ([2]; Table 2, NHEK-AD) [nM]
8 | Cc1ccc(NS(=O)(=O)c2cccc(/C=C/C(=O)NO)c2)cc1 [PX106508] | 1600 | 300 | 3500 |  | 31 | 31 |  | 200 | 90 |  | 
9 | O=C(/C=C/c1cccc(S(=O)(=O)NCCc2ccccc2)c1)NO [PX106512] | 1900 | 210 | 2400 |  | 22 | 22 |  | 114 | 458 |  | 
10 | O=C(/C=C/c1cccc(S(=O)(=O)Nc2ccc3ccccc3c2)c1)NO [PX117445, N-Hydroxy-3-[3-(naphthalen-2-ylsulfamoyl)-phenyl]-acrylamide] | 1100 | 130 | 1200 |  | 2 |  |  | 164 |  |  | 750
